Like-named read-outs stand apart in the source and are kept apart here. Some results are limits rather than exact numbers.

The target in experiment [1] is T1, HIV-1 IN-IN subunit exchange (Human immunodeficiency virus type 1 group M subtype B, UniProt P12497).
T1 construct: Preparation of recombinant full-length IN and LEDGF proteins; made in house; host or cells: E. coli BL21(DE3)
The experiment in a line: HTRF-based IN subunit exchange assay. Format: binding. As to the method: Proteins were expressed in E. coli BL21(DE3). Briefly, His-IN was purified by loading the precipitate of cell lysate onto a Ni-Sepharose column and eluting with a […] imidazole gradient (0–500 mM) in a HEPES buffer (50 mM, pH 7.5) containing NaCl (1 M), CHAPS (7.5 mM), and β-mercaptoethanol (2 mM). FLAG-IN was purified by loading the precipitate of cell lysate onto a phenyl-sepharose and ammonium sulfate gradient (0–800 mM) in a HEPES (pH 7.5, 50 mM) buffer containing NaCl (200 mM), CHAPS (7.5 mM), and β-mercaptoethanol (2 mM). Peak fractions were pooled, loaded onto a heparin column, and eluted with an increasing NaCl gradient (200 mM to 1 M) in a HEPES (pH 7.5, 50 mM) buffer containing CHAPS (7.5 mm) and β-mercaptoethanol (2 mM). Fractions containing integrase were pooled and stored in glycerol (10%) at −80°C.
His and FLAG-tagged INs were mixed in Tris (pH 7.4, 25 mm) buffer containing NaCl (150 mm), MgCl2 (2 mM), Nonidet P-40 (0.1%), and BSA (1 mg/ml). Test compounds were then added to the mixture, and incubation was carried out for 2.5 h at room temperature.

Another experiment deals with T2, HIV-1 RT-associated RDDP (Human immunodeficiency virus type 1 group M subtype B, UniProt P04585).
T2 construct: The 1:1 ratio between the p66/p51 subunits was also verified; His tag (implied only by Ni-NTA IMAC purification); made in house; host or cells: Escherichia coli M15
The experiment in a line: HIV-1 RNA-dependent DNA polymerase activity determination. The following applies: wt HIV-1 RT; three independent experiments, average ± standard deviation; read-out: RDDP IC50. Format: biochemical. As for the experimental part: (§1) Escherichia coli strain M15 containing the p6HRT-prot vector (provided by Stuart Le Grice laboratory (NCI Frederick)) was grown to an optical density at 600 nm of 0.7 and induced with 1.7 mM of isopropyl β-D-1-thiogalactopyranoside (IPTG) for 4 h. Protein purification was carried out with a BioLogic LP system (Bio-Rad, Hercules, CA, USA) using a combination of immobilized metal affinity chromatography (IMAC) and ion exchange chromatography. Cell pellets were resuspended in lysis buffer (50 mM of sodium phosphate buffer, pH 7.8, containing 0.5 mg/mL of lysozyme), incubated on ice for 20 min, and, after the addition of NaCl to a final concentration of 0.3 M, were sonicated and centrifuged at 30,000 ×g for 1 h. The supernatant was loaded onto a Ni^2+-NTA-Sepharose column pre-equilibrated with loading buffer (50 mM of sodium phosphate buffer, pH 7.8, containing 0.3 M of NaCl, 10% glycerol, and 10 mM of imidazole) and washed thoroughly with wash buffer (50 mM of sodium phosphate buffer, pH 6.0, containing 0.3 M of NaCl, 10% glycerol, and 80 mM of imidazole). RT was eluted with an imidazole gradient in the wash buffer (0–0.5 M). Fractions were collected, and protein purity was checked by sodium dodecyl sulfate–polyacrylamide gel electrophoresis (SDS-PAGE) and found to be higher than 90%. The 1:1 ratio between the p66/p51 subunits was also verified. Enzyme-containing fractions were pooled and diluted 1:1 with 50 mM of sodium phosphate buffer, pH 7.0, containing 10% glycerol, and then loaded into a Hi-trap heparin HP GE (Healthcare LifeScience) pre-equilibrated with 10 column volumes of loading buffer (50 mM of sodium phosphate buffer, pH 7.0, containing 10% glycerol, and 150 mM of NaCl). The column was then washed with loading buffer, and the RT was eluted with Elute Buffer 2 (50 mM of sodium phosphate, pH 7.0, 10% glycerol, 1 M of NaCl). Fractions were collected, and the protein was dialyzed and stored in a buffer containing 50 mM of Tris-HCl, pH 7.0, 25 mM of NaCl, 1 mM of EDTA, and 50% glycerol. Catalytic activities and protein concentrations were determined. Enzyme-containing fractions were pooled, and aliquots were stored at −80°C.
RDDP activity was measured as previously reported in 25-µl volume containing 60 mM of Tris‐HCl buffer, pH 8.1, 8 mM of MgCl2, 60 mM of KCl, 13 mM of DTT, 2.5 µM of poly(A)-oligo(dT), 100 µM of dTTP, increasing concentrations of inhibitors, whose dilution were made in water, and different amounts of enzymes according to a linear range of the dose–response curve. The reaction mixture was incubated for 30 min at 37°C and then stopped by the addition of EDTA. Reaction products were detected by pico green addition and measured with a multilabel counter plate reader Victor 3, equipped with filters for 502/523 nm.

Experiment [2] concerns HIV-1 RTs bearing K103N, Y181C, and Y188L (RNase H). The experiment in a line: RNase H activity of HIV-1 RTs bearing K103N, Y181C and Y188L substitutions. Format: biochemical. To be noted: all cases. As for the experimental part:
K103N, Y181C, and Y188L mutations were introduced into the p6HRT-prot vector using the QuikChange protocol (Agilent Technologies, Santa Clara, CA, USA). Enzymes were expressed and purified as the wt-HIV-1 RT.
(§2) HIV RT-associated RNase H activity was measured as described ([Corona et al., 2016b]) in a 100-µl reaction volume containing 50 mM of Tris-HCl buffer, pH 7.8, 6 mM of MgCl2, 1 mM of dithiothreitol (DTT), 80 mM of KCl, 0.25 µM of hybrid RNA/DNA 5′-[…]-Fluorescin-3′ (high-performance liquid chromatography (HPLC), dry, QC: Mass Check) (available from Metabion) 5′-Dabcyl-[…]-3′ (HPLC, dry, QC: Mass Check), increasing concentrations of inhibitors, whose dilution were made in water, and different amounts of enzymes according to a linear range of the dose–response curve. The reaction mixture was incubated for 1 h at 37°C and stopped by the addition of EDTA, and products were measured with a multilabel counter plate reader Victor 3 equipped with filters for 490/528 nm.

Another experiment relates to HIV-1. The experiment in a line: HIV-1 replication inhibition in MT4 cells. Type of experiment: cell-based. To be noted: three independent experiments, average ± standard deviation, read-out: HIV-1 EC50. As to the method: HIV-1 replication was carried out in MT4 cells as previously reported ([Corona et al., 2016a]) using a molecular clone derived from the pNL4-3 ([Thierry et al., 2015]). A total of 120 ng of p24^gag antigen per 10^6 cells, corresponding to a multiplicity of infection (m.o.i.) of 0.3, was used for infection. […] Flow cytometry analysis was performed on a FACSCalibur flow cytometer (BD Biosciences, San Jose, CA, USA), and the results were analyzed using the […] software.

Experiment [3] has as its target T3, HIV-1 RT-associated RNase H (Human immunodeficiency virus type 1 group M subtype B, UniProt P04585).
T3 construct: The 1:1 ratio between the p66/p51 subunits was also verified; His tag (implied only by Ni-NTA IMAC purification); made in house; host or cells: Escherichia coli M15
The experiment in a line: HIV-1 DNA polymerase-independent RNase H activity determination. Type of experiment: biochemical. To be noted: wt HIV-1 RT; three independent experiments, average ± standard deviation; read-out: RNase H IC50. As for the experimental part: as §1, §2

Where [4] appears, read: Human immunodeficiency virus 1, MT4, viral replication in MT4 cells.

In general, IC50 refers to the concentration that inhibits the measured activity by half. By EC50 is commonly meant the concentration at which the effect is half-maximal. As to `O=C1Nc2ccc(Cl)cc2/C1=N/Nc1nc(-c2ccc(Cl)c(Cl)c2)cs1` [9b], the IC50 was above 100 µM in experiment [1], 24 ± 3 µM at HIV-1 RT-associated RDDP and 8.8 ± 1.3 µM in experiment [3]. Besides, in experiment [2], the “increase in IC50 values vs wt RT, RNase H function” value is on record as “less than threefold”. Moreover, the results for the half-maximal effective concentration (EC50) in the experiment with HIV-1 (setting [4]) and with HIV-1 (viral replication in MT4 cells) were below 20 µM and 13.2 ± 3.7 µM, respectively.

Turning to `Cc1ccc(-c2csc(N/N=C3\C(=O)Nc4ccc([N+](=O)[O-])cc43)n2)cc1` [10a], the figures for the IC50 (in experiment [1]; on HIV-1 RT-associated RDDP; in experiment [3]) were 11.5 ± 1.5 µM, 18 ± 1.5 µM and 8.5 ± 0.5 µM, respectively. The “increase in IC50 values vs wt RT, RNase H function” value in experiment [2] is “less than threefold”. For the same compound, the EC50 is below 20 µM with HIV-1 (setting [4]) and 15.8 ± 1.8 µM with HIV-1 (viral replication in MT4 cells).
